Test results from ChEMBL document CHEMBL6074662, “Antibacterial, Antibiofilm, and Anti-inflammatory Effects of a Novel Thrombin-Derived Peptide in Sepsis Models: Insights into Underlying Mechanisms” (J Med Chem, 2024).
In brackets after ≈: the same amount, converted by molar mass. Activity calls are given as the source filed them. The calls are words filed in the database; no cut-off is given here. Where a SMILES comes first, the peptide text is derived from it. Bridges are numbered along the chain shown (N, C = ends). [ ]: non-standard residue; d: D form. The star is where a group is joined. X1 = CC[C@H](C)CCCCC(=O)*; dDab = NCC[C@@H](N)C(=O)O; Dab = NCC[C@H](N)C(=O)O

What was measured:
[1] = system: Pseudomonas aeruginosa; assay: Bactericidal activity against multidrug-resistant Pseudomonas aeruginosa CCARM 2095 at 128 to 512 uM incubated for 12 hrs by time-kill assay; type: functional, organism-based; details: dose 128-512 µM
[2] = system: Staphylococcus aureus; assay: Antibacterial activity against methicillin-resistant Staphylococcus aureus CCARM 3089 incubated for 24 hrs by broth microdilution method; type: functional
[3] = system: Staphylococcus aureus; assay: Bactericidal activity against methicillin-resistant Staphylococcus aureus CCARM 3089 at 128 to 512 uM incubated for 12 hrs by time-kill assay; type: functional, organism-based; details: dose 128-512 µM
[4] = system: Pseudomonas aeruginosa; assay: Antibacterial activity against multi-drug resistant Pseudomonas aeruginosa CCARM 2095 incubated for 24 hrs by broth microdilution method; type: functional
[5] = system: Acinetobacter baumannii; assay: Antibacterial activity against multidrug-resistant Acinetobacter baumannii 329-97 incubated for 24 hrs by CLSI based broth microdilution method; type: functional
[6] = system: Escherichia coli; assay: Induction of inner membrane permeabilization in Escherichia coli KCTC 1682 at MIC by PI staining based flow cytometry (reference value: 1.51 %); type: functional
[7] = system: Acinetobacter baumannii; assay: Antibacterial activity against carbapenem-resistant Acinetobacter baumannii NMS 1707 incubated for 24 hrs by CLSI based broth microdilution method; type: functional
[8] = system: Acinetobacter baumannii; assay: Antibacterial activity against multidrug-resistant Acinetobacter baumannii 329-53 incubated for 24 hrs by CLSI based broth microdilution method; type: functional
[9] = Hemolytic activity in sheep RBC incubated for 1 hr by absorbance based assay; type: toxicity, cell-based, Ovis aries; details: erythrocyte
[10] = system: Acinetobacter baumannii; assay: Antibacterial activity against carbapenem-resistant Acinetobacter baumannii NMS 1915 incubated for 24 hrs by CLSI based broth microdilution method; type: functional
[11] = system: Acinetobacter baumannii; assay: Antibacterial activity against carbapenem-resistant Acinetobacter baumannii CCARM 12005 incubated for 24 hrs by CLSI based broth microdilution method; type: functional
[12] = system: Enterococcus faecium; assay: Antibacterial activity against vancomycin-resistant Enterococcus faecium ATCC 51559 incubated for 24 hrs by CLSI based broth microdilution method; type: functional
[13] = system: Lipopolysaccharide (LPS); assay: Disaggregation of FITC-labeled Escherichia coli 0111:B4 LPS assessed as increase in fluorescence intensity at higher concentration
[14] = system: Staphylococcus aureus; assay: Antibacterial activity against Staphylococcus aureus KCTC 1621 incubated for 24 hrs by CLSI based broth microdilution method; type: functional
[15] = system: Pseudomonas aeruginosa; assay: Antibacterial activity against multidrug-resistant Pseudomonas aeruginosa CCARM 2095 incubated for 24 hrs by CLSI based broth microdilution method; type: functional
[16] = Effect on secondary structure of drug in SDS assessed as fold increase in formation of alpha-helical conformation at 150 uM by CD analysis relative to HVF18; type: physicochemical
[17] = system: Staphylococcus aureus; assay: Antibacterial activity against methicillin-resistant Staphylococcus aureus CCARM 3090 incubated for 24 hrs by CLSI based broth microdilution method; type: functional
[18] = system: Pseudomonas aeruginosa; assay: Antibacterial activity against Pseudomonas aeruginosa KCTC 1637 incubated for 24 hrs by CLSI based broth microdilution method; type: functional
[19] = system: Staphylococcus aureus; assay: Antibacterial activity against methicillin-resistant Staphylococcus aureus CCARM 3089 incubated for 24 hrs by CLSI based broth microdilution method; type: functional
[20] = Effect on secondary structure of drug in TFE assessed as fold increase in formation of alpha-helical conformation at 150 uM by CD analysis relative to HVF18; type: physicochemical
[21] = Hemolytic activity in sheep RBC at 256 uM incubated for 1 hr by absorbance based assay; type: toxicity, cell-based, Ovis aries, Erythrocyte; details: sheep red blood cells, read-out: Activity
[22] = system: Staphylococcus aureus; assay: Antibacterial activity against methicillin-resistant Staphylococcus aureus CCARM 3095 incubated for 24 hrs by CLSI based broth microdilution method; type: functional
[23] = Effect on secondary structure of drug in PBS assessed as formation of random coil structure at 150 uM by CD analysis; type: physicochemical; details: buffer
[24] = system: Bacillus subtilis; assay: Antibacterial activity against Bacillus subtilis KCTC 3068 incubated for 24 hrs by CLSI based broth microdilution method; type: functional
[25] = system: Salmonella typhimurium; assay: Antibacterial activity against Salmonella typhimurium KCTC 1926 incubated for 24 hrs by CLSI based broth microdilution method; type: functional, Salmonella enterica subsp. enterica serovar Typhimurium; details: Salmonella enterica
[26] = system: Staphylococcus epidermidis; assay: Antibacterial activity against Staphylococcus epidermidis KCTC 1917 incubated for 24 hrs by CLSI based broth microdilution method; type: functional
[27] = Effect on secondary structure of drug in LPS assessed as fold increase in formation of alpha-helical conformation at 150 uM by CD analysis relative to HVF18; type: physicochemical
[28] = Hydrophobicity of compound assessed as retention time by RP-HPLC analysis; type: physicochemical
[29] = system: Escherichia coli; assay: Antibacterial activity against Escherichia coli KCTC 1682 incubated for 24 hrs by CLSI based broth microdilution method; type: functional
[30] = system: Pseudomonas aeruginosa; assay: Antibacterial activity against multidrug-resistant Pseudomonas aeruginosa CCARM 2109 incubated for 24 hrs by CLSI based broth microdilution method; type: functional

Row | Compound | MIC [2] [µM] | MIC [4] [µM] | MIC [5] [µM] | MIC [7] [µM] | MIC [8] [µM] | HC10 [9] [µM] | MIC [10] [µM] | MIC [11] [µM] | MIC [12] [µM] | MIC [14] [µM] | MIC [15] [µM] | MIC [17] [µM] | MIC [18] [µM] | MIC [19] [µM] | hemolysis at 1 h, 256 µM [21] [%] | MIC [22] [µM] | MIC [24] [µM] | MIC [25] [µM] | MIC [26] [µM] | Retention_time [28] [min] | also measured
1 | Cc1onc(-c2ccccc2)c1C(=O)N[C@@H]1C(=O)N2[C@@H]1SC(C)(C)[C@@H]2C(=O)O [OXACILLIN] | 2050 (≈ 822 µg/mL) | 4100 (≈ 1640 µg/mL) |  |  |  |  |  |  |  |  |  |  |  |  |  |  |  |  |  |  | Activity [1]: inactive; Activity [3]: inactive
2 | CC[C@H](C)[C@H](NC(=O)CN)C(=O)NCC(=O)N[C@@H](C)C(=O)N[C@H](C(=O)N[C@@H](CC(C)C)C(=O)N[C@@H](CCCCN)C(=O)N[C@H](C(=O)N[C@@H](CC(C)C)C(=O)N[C@H](C(=O)N[C@H](C(=O)NCC(=O)N[C@@H](CC(C)C)C(=O)N1CCC[C@H]1C(=O)N[C@@H](C)C(=O)N[C@@H](CC(C)C)C(=O)N[C@H](C(=O)N[C@@H](CO)C(=O)N[C@@H](Cc1c[nH]c2ccccc12)C(=O)N[C@H](C(=O)N[C@@H](CCCCN)C(=O)N[C@@H](CCCNC(=N)N)C(=O)N[C@@H](CCCCN)C(=O)N[C@@H](CCCNC(=N)N)C(=O)N[C@@H](CCC(N)=O)C(=O)N[C@@H](CCC(N)=O)C(N)=O)[C@@H](C)CC)[C@@H](C)CC)[C@@H](C)O)[C@@H](C)O)C(C)C)C(C)C [MELITTIN] |  |  | 2 (≈ 5.69 µg/mL) | 8 (≈ 22.8 µg/mL) | 2 (≈ 5.69 µg/mL) | 2.2 | 4 (≈ 11.4 µg/mL) | 8 (≈ 22.8 µg/mL) | 2 (≈ 5.69 µg/mL) |  |  |  |  |  |  |  |  |  |  |  | Activity [6]: ~100%
3 | CC(C)CCCCC(=O)N[C@@H](CCN)C(=O)N[C@H](C(=O)N[C@@H](CCN)C(=O)N[C@H]1CCNC(=O)[C@H]([C@@H](C)O)NC(=O)[C@H](CCN)NC(=O)[C@H](CCN)NC(=O)[C@H](CC(C)C)NC(=O)[C@@H](Cc2ccccc2)NC(=O)[C@@H](CCN)NC1=O)[C@@H](C)O.CC[C@H](C)CCCCC(=O)N[C@@H](CCN)C(=O)N[C@H](C(=O)N[C@@H](CCN)C(=O)N[C@H]1CCNC(=O)[C@H]([C@@H](C)O)NC(=O)[C@H](CCN)NC(=O)[C@H](CCN)NC(=O)[C@H](CC(C)C)NC(=O)[C@@H](Cc2ccccc2)NC(=O)[C@@H](CCN)NC1=O)[C@@H](C)O (X1-[Dab]T[Dab][Dab][dDab][dF]L[Dab][Dab]T; lactam 4-C) |  |  |  |  |  |  |  |  |  |  |  |  |  |  |  |  |  |  |  |  | Activity [13]: inactive
4 | H-GVFRLKKWIQKVIRQWGR-NH2 |  |  | 2 | 2 | 4 | 122 | 2 | 4 | 8 | 8 | 2 | 8 | 8 | 8 | 21.2 | 4 | 2 | 4 | 4 | 25.15 | fold change (FC) [16]: ~ 5; fold change (FC) [20]: ~ 5; Activity [23]: Active; fold change (FC) [27]: ~ 5; MIC [29]: 8 µM; MIC [30]: 16 µM
5 | H-HVFRLKKWIQKVIDQFGE-OH |  |  | 4 | 32 | 4 | > 256 | 64 | 4 | > 128 | 128 | 128 | > 128 | 128 | > 128 | 7.8 | > 128 | 32 | 32 | 16 | 25.53 | MIC [29]: 32 µM; MIC [30]: > 128 µM
6 | O=C(N[C@H](CO)[C@H](O)c1ccc([N+](=O)[O-])cc1)C(Cl)Cl [CHLORAMPHENICOL] | 1020 (≈ 331 µg/mL) | 4100 (≈ 1320 µg/mL) |  |  |  |  |  |  |  |  |  |  |  |  |  |  |  |  |  |  | 
